Experimental data: patent US20120107417A1, “Effective Antitumor Treatments” (PHARMA MAR, S.A., priority 2000, published 2012)
Where two headings read alike, the source gives them in different places.

How the values were obtained:
HS-18 cells = assay: Cell cycle analysis (propidium iodide, FACS), HS-18; assay type: cell-based, human
Description: (§1) Exponentially growth cells were treated with or without drugs for several hours. Cells were then collected and fixed with ice-cold 70% methanol. DNA was stained with propidium iodide as described previously. Ten thousand stained cells were analyzed on a Becton Dickinson fluorescence-activated cell sorter (FACS).

HS-18 = assay: SRB cytotoxicity assay and Chou-Talalay combination index, HS-18; assay type: cell-based, human
Description: (§2) Soft tissue sarcoma cell lines, HT-1080 and HS-18 were maintained as monolayer cultures in RP<I-1640 containing 10% fetal bovine serum.
(§3) Cytotoxicity to drugs was determined by SRB cytotoxicity assay carried out in 96-well microtiter plates as described. Cells were plated in duplicate wells (5000 cells/well) and exposed to drugs at different concentrations. Cells were fixed with 50% TCA solution for 1 h and 0.4% SRB (Sigma) was added to each well. After a 30 min incubation, the plate were washed with 1% acetic acid and read at 570 nm on a Biowhitaker microplate reader 2001. The wells with cells containing no drugs and with medium plus drugs but no cells were used as positive and negative controls, respectively.
(§4) Cells were seeded into 96-well plates, as described previously. Cells were treated with seven different concentrations of the single drugs or combinations mixture at 1:100 (ET-743: the other drugs) molar ratio. After 72 h exposure, growth inhibition was measured using the SRB assay.
(§5) Using the same experimental setup described above, we exposed cells to three different concentrations of drugs which represents the IC25, IC50, IC75 of ET-743, DXR, TMTX and paclitaxel, respectively. After 24 hours pre-treatment with ET743 or the combination drug, the second drugs were added to the respective wells for 48 h. Growth inhibition was determined using the SRB assay.)
(§6) The CI was calculated by the Chou-Talalay equation, which takes into account both potency (Dm or IC50) and the shape of the dose effect curve (the m value). The general equation for the classic isobologram (CI=1) is given by:
(§7) CI=(D)1/(Dx)1+(D)2/(Dx)2 (A)

HT-1080 cells = assay: Cell cycle analysis (propidium iodide, FACS), HT-1080; assay type: cell-based, human
Description: as §1

HT-1080 = assay: SRB cytotoxicity assay and Chou-Talalay combination index, HT-1080; assay type: cell-based, human
Description: as §2, §3, §4, §5, §6, §7

osteosarcoma (OSA-FH) [1] = assay: Osteosarcoma xenografts; assay type: in vivo; conditions: DOX 1 hr pre-Et743 vs Et743 alone
Source text: (§8) Osteosarcoma xenografts produced similar results of 17% vs. 43%. […] The one exception was in NSCL were Et743 alone was not active (62% T/C) but DPP followed by Et743 produced CR (<1% T/C). In renal xenografts Et743 alone was very active (22% T/C) but Et743 followed by VINB also produced CR (<1% T/C). Separate studies are underway with other standard agents in breast, renal, melanoma and gastric tumor xenografts.

osteosarcoma (OSA-FH) [2] = assay: Hollow fiber (HF) model, osteosarcoma; assay type: in vivo
Source text: as §8

ovary (HOC 22) = conditions: Hendriks et al. 1999; cited from earlier work
NER deficient cells = NER deficient cells very sensitive to cisplatin; previous studies; cited from earlier work
xenograft = assay: Xenograft, Et743 pre-DDP (tumor not named); assay type: in vivo; conditions: xenograft data; Et743 pre-DDP vs Et743 alone
Source text: as §8

ovarian 1 A 9 tumor = assay: ET-743/DDP against ovarian 1A9 tumor in vivo; parameters: species or system human; conditions: single agents
Source text: The ovarian 1 A 9 tumor that is normally resistant to both ET-743 and DDP as single agents, in combination produced a tumor growth inhibition greater than 50%.

[3] = tested on: mismatch repair (MMR) deficient cells; conditions: MMR deficient vs proficient cells; previous studies; cited from earlier work
liver = conditions: rat
Description: In the light of the antiinflammatory activity of dex, we investigated its effect on liver damage induced by ET-743 in the rat. Female Wistar rats received a single iv dose of ET-743 (40 μg/kg). Some rats were pretreated with a single oral dose of dex either at 1, 5, 10 or 20 mg/kg 24 h prior to ET-743 treatment. Liver pathology and plasma concentrations of alkaline phophatase (ALP), aspartate aminotransferase (GOT) and total bilirubin (TB) were assessed up to 3 days post ET-743 administration. Conventional histological sections of the livers were examined by light microscopy.

[4] = Plasma levels of ET-743 in rats pretreated with dex; assay type: in vivo; conditions: rats given dex 50 mg/kg daily for 3 days prior to ET-743, compared to ET-743 alone
Description: (§9) Plasma levels of ET-743 in rats which received dex (50 mg/kg) daily for 3 days prior to ET-743 were not decreased compared to those in rats on ET-743 alone. Furthermore, the activity of ET-743 against B16 melanoma implanted into mice was not impeded by dexamethasone.

renal (MRI-H-121) = assay: Renal xenografts, Et743 and VINB; assay type: in vivo; conditions: Et743 alone vs Et743 followed by VINB 6 mg/Kg
Source text: as §8

B16 melanoma = assay: Activity of ET-743 against B16 melanoma with dexamethasone; assay type: in vivo; conditions: mice
Description: as §9

ovary (MRI-H-1834) = assay: Hollow fiber (HF) model, ovary; assay type: in vivo; conditions: Et743 0.2 mg/Kg pre-DDP 12 mg/Kg vs Et743 alone
Source text: as §8

fibrosarcoma (SW684) = assay: Hollow fiber (HF) model, fibrosarcoma; assay type: in vivo; conditions: DOX 8 mg/Kg 1 hr pre-Et743 0.2 mg/Kg vs Et743 alone, qdx5
Source text: as §8

TE 671 cells = assay: Clonogenic assay ET-743/DOX, TE 671; assay type: cell-based, human; conditions: 1 hr exposures, isobologram analysis and Combination Index
Description: In vitro: The effect of each drug or combination after 1 hr exposures was evaluated by clonogenic assay.

breast carcinoma (MX-1) = conditions: Hendriks et al. 1999; cited from earlier work
[5] = tested on: human ovarian carcinoma HOC8; assay: ET-743/DDP against orthotopically transplanted HOC8; assay type: in vivo; conditions: HOC8 orthotopic, peritoneal nodules with ascites; single agents
[6] = tested on: human rabdomyosarcoma zenograft TE671; assay: ET-743/doxorubicin against TE671 xenograft in athymic (nude) mice; assay type: in vivo; conditions: for antitumor effect in words: TE671 in mice, alone or combination; for Log 10 Cell Kill (LCK) / tumor weight inhibition (TWI): single i.v. treatment at tumor approx. 100 mg, drug alone (ET-743 0.1 mg/kg; Dx 10 mg/kg)
Description: In vivo: Single iv treatments (ET-743, 0.1 mg/Kg; DOX, 10 mg/Kg) were administered in nude mice when xenograft tumors weighed approximately 100 mg.

sc transplanted TE671 = assay: ET-743/DDP against sc transplanted TE671; assay type: in vivo, human; conditions: single drugs at MTD or combination
chondrosarcoma (CSHA) = assay: Hollow fiber (HF) model, chondrosarcoma; assay type: in vivo
Source text: as §8

NSCL (LXFL 529) = conditions: Hendriks et al. 1999; cited from earlier work
NSCL (LX-1) = assay: NSCL tumor, Et743 and DDP; assay type: in vivo; conditions: Et743 alone vs DDP followed by Et743
Source text: as §8

[7] = tested on: murine fibrosarcoma UV2237; assay: ET-743/doxorubicin against murine fibrosarcoma UV2237 in mice; assay type: in vivo; conditions: alone or combination
UV2237/ADR = assay: ET-743/doxorubicin against mdr-resistant subline UV2237/ADR in mice; assay type: in vivo, murine; conditions: alone or combination
melanoma (MEXF 989) = conditions: Hendriks et al. 1999; cited from earlier work
[8] = Biodistribution/PK of DOX with ET-743 in nude mice with tumor xenografts; assay type: in vivo; conditions: DOX alone vs concomitant treatment with ET-743
Source text: ET-743 has shown activity in patients with sarcoma refractory to DOX and ifosfamide. In view of its potential as an effective drug, we investigated (1) the preclinical anti-tumor activity of ET-743/DOX combination against the human rhabdomyosarcoma TE 671 and (2) possible interactions between the drugs and their biodistribution in nude mice and tumor xenografts.
The pharmacokinetic (PK) evaluation of ET-743 given alone or in combination with DOX is underway.

[9] = 24 h after treatment with approximate IC50 dose
[10] = 72 h after treatment with approximate IC50 dose
[11] = Homo sapiens, 72 h, read-out: IC50 for human soft tissue sarcoma cells, HS-18
[12] = Homo sapiens, HT-1080, 72 h, read-out: IC50 for human soft tissue sarcoma cells, HT-1080
[13] = DOX 8 mg/Kg 1 hr pre-Et743 0.2 mg/Kg vs Et743 alone, qdx5
[14] = ET-743 40 μg/kg iv alone, after 2 days

## COc1cc(NCc2ccc3nc(N)nc(N)c3c2C)cc(OC)c1OC [TMTX, trimetrexate]
HS-18 cells; [9]
  % G1: 44.2%
  % G2-M: 1.9%
  % S phase: 53.8%
HS-18 cells; [10]
  % G1: 35.5%
  % G2-M: 7.0%
  % S phase: 57.6%
HS-18; [11]
  IC50: 70000 nM
HT-1080 cells; [9]
  % G1: 31.9%
  % G2-M: 11.3%
  % S phase: 56.8%
HT-1080 cells; [10]
  % G1: 32.0%
  % G2-M: 14.4%
  % S phase: 53.7%
HT-1080; [12]
  IC50: 6 nM

## Ecteinascidin 743 [ET-743]
HS-18 cells; [9]
  % G1: 32.4%
  % G2-M: 20.0%
  % S phase: 47.6%
HS-18 cells; [10]
  % G1: 86.7%
  % G2-M: 4.9%
  % S phase: 8.4%
Osteosarcoma (OSA-FH) [1]
  T/C: 43%
Osteosarcoma (OSA-FH) [2]; [13]
  T/C: 34%
Osteosarcoma (OSA-FH) [2]; Et743 pre-DDP and Et743 alone, equivalent activities
  T/C: 36%
Ovary (HOC 22)
  in vivo tumor growth inhibition, single agent: complete remissions
NER deficient cells
  times less sensitive to ET-743: 6-8 times
xenograft
  T/C: 66%
Ovarian 1 A 9 tumor
  sensitivity of tumor to single agent: resistant
[3]
  sensitivity to ET-743 compared with proficient cells: equally sensitive
HS-18; HS-18 liposarcoma cell line, read-out: IC50
  IC50: 0.27 nM
liver; [14]
  Plasma levels of ALP: significantly elevated
  Plasma levels of GOT: significantly elevated
liver; ET-743 40 μg/kg iv alone, commenced on day 2
  plasma TB concentrations: dramatic increase
liver; ET-743 40 μg/kg single iv alone, 2 days post treatment
  liver pathology: bile duct inflammation, striking degenerative changes in biliary epithelial cells and zones of hepatic necrosis
[4]
  Plasma levels of ET-743: not decreased
Renal (MRI-H-121)
  T/C: 22%
B16 melanoma
  activity of ET-743 against B16 melanoma: not impeded
Ovary (MRI-H-1834)
  T/C: 100%
Fibrosarcoma (SW684)
  T/C: 48%
HT-1080 cells; [9]
  % G1: 42.6%
  % G2-M: 21.3%
  % S phase: 36.1%
HT-1080 cells; [10]
  % G1: 83.1%
  % G2-M: 6.7%
  % S phase: 10.2%
TE 671 cells
  anti-tumor activity / interaction in clonogenic assay: showed anti-tumor activity
Breast carcinoma (MX-1)
  in vivo tumor growth inhibition, single agent: complete remissions
[5]
  sensitivity of tumor to single agent: resistant
[6]
  antitumor effect in words: inactive or marginally active
  Log 10 Cell Kill (LCK): 0.132
  tumor weight inhibition (TWI): 46%
Sc transplanted TE671
  antitumor effect in words: partially sensitive
Chondrosarcoma (CSHA); [13]
  T/C: 10%
Chondrosarcoma (CSHA); Et743 0.2 mg/Kg pre-DDP 12 mg/Kg vs Et743 alone
  T/C: 19%
NSCL (LXFL 529)
  in vivo tumor growth inhibition, single agent: complete remissions
NSCL (LX-1)
  T/C: 62%
HT-1080; HT 1080 fibrosarcoma cell line, read-out: IC50
  IC50: 0.01 nM
[7]
  antitumor effect in words: effective
UV2237/ADR
  antitumor effect in words: inactive or marginally active
Melanoma (MEXF 989)
  in vivo tumor growth inhibition, single agent: complete remissions

## COc1cccc2c1C(=O)c1c(O)c3c(c(O)c1C2=O)C[C@@](O)(C(=O)CO)C[C@@H]3O[C@H]1C[C@H](N)[C@H](O)[C@H](C)O1 [Dx, doxorubicin]
HS-18 cells; [9]
  % G2-M: 25.0%
  % S phase: 64.9%
HS-18 cells; [10]
  % G1: 1.3%
  % G2-M: 34.9%
  % S phase: 63.8%
HS-18; [11]
  IC50: 225 nM
HT-1080 cells; [9]
  % G1: 36.1%
  % S phase: 17.5%
HT-1080 cells; [10]
  % G1: 46.2%
  % S phase: 5.3%
TE 671 cells
  anti-tumor activity / interaction in clonogenic assay: showed anti-tumor activity
[8]
  PK profile of DOX (plasma and tumor concentrations): not influenced
[6]
  antitumor effect in words: inactive or marginally active
  Log 10 Cell Kill (LCK): 0.33
  tumor weight inhibition (TWI): 50%
HT-1080; [12]
  IC50: 25 nM
[7]
  antitumor effect in words: effective
UV2237/ADR
  antitumor effect in words: inactive or marginally active
